{"source": "ChEMBL document CHEMBL4680138", "about": "“A 18β-glycyrrhetinic acid conjugate with Vorinostat degrades HDAC3 and HDAC6 with improved antitumor effects” (Eur J Med Chem, 2020)", "key": {"HL-60 [1]": {"system": "HL-60", "experiment": "Induction of apoptosis in human HL-60 cells assessed as increase in accumulation at sub-G1 phase at 2 uM after 24 hrs by propidium iodide staining based flow cytometry (reference value: 2.72 %)", "type": "functional"}, "HL-60 [2]": {"system": "HL-60", "experiment": "Upregulation of acetylated alpha-tubulin level in human HL-60 cells at 2 uM measured after 12 hrs by Western blot analysis", "type": "functional, cell-based"}, "HL-60 [3]": {"system": "HL-60", "experiment": "Induction of apoptosis in human HL-60 cells assessed as necrotic cells at 1 uM measured after 24 hrs by Annexin-V/FITC and propidium iodide staining based flow cytometry (reference value: 1.01 %)", "type": "functional"}, "HL-60 [4]": {"system": "HL-60", "experiment": "Induction of apoptosis in human HL-60 cells assessed as early apoptotic cells at 0.5 uM measured after 24 hrs by Annexin-V/FITC and propidium iodide staining based flow cytometry (reference value: 2.46 %)", "type": "functional"}, "HL-60 [5]": {"system": "HL-60", "experiment": "Induction of apoptosis in human HL-60 cells assessed as late apoptotic cells at 2 uM measured after 24 hrs by Annexin-V/FITC and propidium iodide staining based flow cytometry (reference value: 7.24 %)", "type": "functional"}, "PC-3": {"system": "PC-3", "experiment": "Cytotoxicity against human PC-3 cells assessed as reduction in cell viability after 96 hrs by MTT assay", "type": "functional, cell-based", "conditions": "PC-3, 96 h"}, "HL-60 [6]": {"system": "HL-60", "experiment": "Induction of apoptosis in human HL-60 cells assessed as late apoptotic cells at 1 uM measured after 24 hrs by Annexin-V/FITC and propidium iodide staining based flow cytometry (reference value: 7.24 %)", "type": "functional"}, "Histone deacetylase 2": {"target": "Histone deacetylase 2 (Homo sapiens, UniProt Q92769)", "sequence (Q92769 whole entry)": "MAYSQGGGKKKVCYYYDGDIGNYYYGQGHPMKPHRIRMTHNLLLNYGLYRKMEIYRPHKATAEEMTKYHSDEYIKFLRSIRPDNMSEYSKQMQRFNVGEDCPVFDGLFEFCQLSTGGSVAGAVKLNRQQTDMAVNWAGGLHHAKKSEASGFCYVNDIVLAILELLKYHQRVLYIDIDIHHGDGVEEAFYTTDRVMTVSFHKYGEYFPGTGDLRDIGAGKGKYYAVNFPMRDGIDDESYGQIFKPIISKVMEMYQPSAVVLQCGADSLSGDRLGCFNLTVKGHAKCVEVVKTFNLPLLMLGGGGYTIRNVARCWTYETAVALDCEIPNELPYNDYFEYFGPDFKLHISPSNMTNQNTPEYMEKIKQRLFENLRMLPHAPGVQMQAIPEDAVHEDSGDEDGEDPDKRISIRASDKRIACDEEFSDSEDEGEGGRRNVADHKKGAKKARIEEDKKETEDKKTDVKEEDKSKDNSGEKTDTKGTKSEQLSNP", "experiment": "(§1) Inhibition of recombinant human HDAC2 expressed in baculovirus infected Sf9 cells using Boc-Lys(Ac)-AMC as substrate preincubated for 15 mins followed by substrate addition and measured after 60 mins by fluorescence based assay", "type": "cell-based"}, "HL-60 [7]": {"system": "HL-60", "experiment": "Induction of apoptosis in human HL-60 cells assessed as late apoptotic cells at 0.5 uM measured after 24 hrs by Annexin-V/FITC and propidium iodide staining based flow cytometry (reference value: 7.24 %)", "type": "functional"}, "HL-60 [8]": {"system": "HL-60", "experiment": "Induction of apoptosis in human HL-60 cells assessed as necrotic cells at 0.5 uM measured after 24 hrs by Annexin-V/FITC and propidium iodide staining based flow cytometry (reference value: 1.01 %)", "type": "functional"}, "HL-60 [9]": {"system": "HL-60", "experiment": "Antiproliferative activity against human HL-60 cells assessed as cell growth inhibition after 72 hrs by trypan blue staining based cell counting assay", "type": "functional", "conditions": "HL-60, 72 h"}, "HL-60 [10]": {"system": "HL-60", "experiment": "Induction of apoptosis in human HL-60 cells assessed as increase in accumulation at sub-G1 phase at 1 uM after 24 hrs by propidium iodide staining based flow cytometry (reference value: 2.72 %)", "type": "functional"}, "HL-60 [11]": {"system": "HL-60", "experiment": "Induction of apoptosis in human HL-60 cells assessed as early apoptotic cells at 1 uM measured after 24 hrs by Annexin-V/FITC and propidium iodide staining based flow cytometry (reference value: 2.46 %)", "type": "functional"}, "HL-60 [12]": {"system": "HL-60", "experiment": "Upregulation of acetylated H3 level in human HL-60 cells at 2 uM measured after 12 hrs by Western blot analysis", "type": "functional, cell-based"}, "HL-60 [13]": {"system": "HL-60", "experiment": "Upregulation of PARP cleavage in human HL-60 cells at 2 uM measured after 12 hrs by Western blot analysis", "type": "functional, cell-based"}, "[14]": {"experiment": "Cmax in Sprague-Dawley rat at 5 mg/kg, iv measured up to 24 hrs by LC-MS/MS analysis", "type": "ADME, organism-based", "set-up": "route intravenous, dose 5 mg/kg, time <=24", "conditions": "in vivo"}, "HL-60 [15]": {"system": "HL-60", "experiment": "Induction of apoptosis in human HL-60 cells assessed as live cells at 2 uM measured after 24 hrs by Annexin-V/FITC and propidium iodide staining based flow cytometry (reference value: 89.29 %)", "type": "functional"}, "HL-60 [16]": {"system": "HL-60", "experiment": "Induction of apoptosis in human HL-60 cells assessed as live cells at 0.5 uM measured after 24 hrs by Annexin-V/FITC and propidium iodide staining based flow cytometry (reference value: 89.29 %)", "type": "functional"}, "Histone deacetylase 1": {"target": "Histone deacetylase 1 (Homo sapiens, UniProt Q13547)", "sequence (Q13547 whole entry, the tested form may be a part)": "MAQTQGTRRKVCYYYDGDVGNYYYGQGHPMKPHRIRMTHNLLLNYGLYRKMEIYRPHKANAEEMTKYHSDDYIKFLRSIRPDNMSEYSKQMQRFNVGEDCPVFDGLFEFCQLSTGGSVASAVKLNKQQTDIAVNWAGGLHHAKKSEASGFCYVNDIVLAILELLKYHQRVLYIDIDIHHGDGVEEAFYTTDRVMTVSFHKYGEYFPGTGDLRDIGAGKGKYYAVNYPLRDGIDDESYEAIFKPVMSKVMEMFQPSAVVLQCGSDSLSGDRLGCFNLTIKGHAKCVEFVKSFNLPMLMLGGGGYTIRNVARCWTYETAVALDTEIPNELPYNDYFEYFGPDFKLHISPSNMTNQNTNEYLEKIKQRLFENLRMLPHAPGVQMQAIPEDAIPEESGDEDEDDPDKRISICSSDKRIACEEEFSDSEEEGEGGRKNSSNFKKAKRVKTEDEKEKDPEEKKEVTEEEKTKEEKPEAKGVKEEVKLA", "experiment": "Inhibition of recombinant human C-terminal FLAG/His-tagged HDAC1 (1 to 482 residues) expressed in Sf9 insect cells using Boc-Lys (Ac)-AMC as substrate preincubated for 15 mins followed by substrate addition and measured after 60 mins by fluorescence based assay"}, "HL-60 [17]": {"system": "HL-60", "experiment": "Induction of apoptosis in human HL-60 cells assessed as increase in accumulation at sub-G1 phase at 0.5 uM after 24 hrs by propidium iodide staining based flow cytometry (reference value: 2.72 %)", "type": "functional"}, "HL-60 [18]": {"system": "HL-60", "experiment": "Induction of apoptosis in human HL-60 cells assessed as necrotic cells at 2 uM measured after 24 hrs by Annexin-V/FITC and propidium iodide staining based flow cytometry (reference value: 1.01 %)", "type": "functional"}, "HL-60 [19]": {"system": "HL-60", "experiment": "Induction of apoptosis in human HL-60 cells assessed as early apoptotic cells at 2 uM measured after 24 hrs by Annexin-V/FITC and propidium iodide staining based flow cytometry (reference value: 2.46 %)", "type": "functional"}, "[20]": {"experiment": "AUC (0 to infinity) in Sprague-Dawley rat at 5 mg/kg, iv measured up to 24 hrs by LC-MS/MS analysis", "type": "ADME, organism-based", "set-up": "route intravenous, dose 5 mg/kg, time <=24", "conditions": "in vivo"}, "[21]": {"target": "Histone deacetylase 3/Nuclear receptor corepressor 2 (HDAC3/NCoR2) (Homo sapiens, UniProt O15379)", "sequence (O15379 whole entry, the tested form may be a part)": "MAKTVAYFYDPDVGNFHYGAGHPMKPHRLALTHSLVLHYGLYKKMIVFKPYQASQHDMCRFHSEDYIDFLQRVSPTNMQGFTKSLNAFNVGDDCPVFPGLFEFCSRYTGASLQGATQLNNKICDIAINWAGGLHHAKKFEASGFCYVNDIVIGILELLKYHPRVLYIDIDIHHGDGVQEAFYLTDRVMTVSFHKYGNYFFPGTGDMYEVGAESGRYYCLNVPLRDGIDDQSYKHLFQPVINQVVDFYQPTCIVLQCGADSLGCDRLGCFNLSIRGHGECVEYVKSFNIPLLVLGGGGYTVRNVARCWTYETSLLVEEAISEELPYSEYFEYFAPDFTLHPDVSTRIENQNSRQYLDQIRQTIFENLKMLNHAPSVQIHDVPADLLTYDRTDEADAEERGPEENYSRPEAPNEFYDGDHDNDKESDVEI", "sequence (Q9Y618 whole entry, further chain, the tested form may be a part)": "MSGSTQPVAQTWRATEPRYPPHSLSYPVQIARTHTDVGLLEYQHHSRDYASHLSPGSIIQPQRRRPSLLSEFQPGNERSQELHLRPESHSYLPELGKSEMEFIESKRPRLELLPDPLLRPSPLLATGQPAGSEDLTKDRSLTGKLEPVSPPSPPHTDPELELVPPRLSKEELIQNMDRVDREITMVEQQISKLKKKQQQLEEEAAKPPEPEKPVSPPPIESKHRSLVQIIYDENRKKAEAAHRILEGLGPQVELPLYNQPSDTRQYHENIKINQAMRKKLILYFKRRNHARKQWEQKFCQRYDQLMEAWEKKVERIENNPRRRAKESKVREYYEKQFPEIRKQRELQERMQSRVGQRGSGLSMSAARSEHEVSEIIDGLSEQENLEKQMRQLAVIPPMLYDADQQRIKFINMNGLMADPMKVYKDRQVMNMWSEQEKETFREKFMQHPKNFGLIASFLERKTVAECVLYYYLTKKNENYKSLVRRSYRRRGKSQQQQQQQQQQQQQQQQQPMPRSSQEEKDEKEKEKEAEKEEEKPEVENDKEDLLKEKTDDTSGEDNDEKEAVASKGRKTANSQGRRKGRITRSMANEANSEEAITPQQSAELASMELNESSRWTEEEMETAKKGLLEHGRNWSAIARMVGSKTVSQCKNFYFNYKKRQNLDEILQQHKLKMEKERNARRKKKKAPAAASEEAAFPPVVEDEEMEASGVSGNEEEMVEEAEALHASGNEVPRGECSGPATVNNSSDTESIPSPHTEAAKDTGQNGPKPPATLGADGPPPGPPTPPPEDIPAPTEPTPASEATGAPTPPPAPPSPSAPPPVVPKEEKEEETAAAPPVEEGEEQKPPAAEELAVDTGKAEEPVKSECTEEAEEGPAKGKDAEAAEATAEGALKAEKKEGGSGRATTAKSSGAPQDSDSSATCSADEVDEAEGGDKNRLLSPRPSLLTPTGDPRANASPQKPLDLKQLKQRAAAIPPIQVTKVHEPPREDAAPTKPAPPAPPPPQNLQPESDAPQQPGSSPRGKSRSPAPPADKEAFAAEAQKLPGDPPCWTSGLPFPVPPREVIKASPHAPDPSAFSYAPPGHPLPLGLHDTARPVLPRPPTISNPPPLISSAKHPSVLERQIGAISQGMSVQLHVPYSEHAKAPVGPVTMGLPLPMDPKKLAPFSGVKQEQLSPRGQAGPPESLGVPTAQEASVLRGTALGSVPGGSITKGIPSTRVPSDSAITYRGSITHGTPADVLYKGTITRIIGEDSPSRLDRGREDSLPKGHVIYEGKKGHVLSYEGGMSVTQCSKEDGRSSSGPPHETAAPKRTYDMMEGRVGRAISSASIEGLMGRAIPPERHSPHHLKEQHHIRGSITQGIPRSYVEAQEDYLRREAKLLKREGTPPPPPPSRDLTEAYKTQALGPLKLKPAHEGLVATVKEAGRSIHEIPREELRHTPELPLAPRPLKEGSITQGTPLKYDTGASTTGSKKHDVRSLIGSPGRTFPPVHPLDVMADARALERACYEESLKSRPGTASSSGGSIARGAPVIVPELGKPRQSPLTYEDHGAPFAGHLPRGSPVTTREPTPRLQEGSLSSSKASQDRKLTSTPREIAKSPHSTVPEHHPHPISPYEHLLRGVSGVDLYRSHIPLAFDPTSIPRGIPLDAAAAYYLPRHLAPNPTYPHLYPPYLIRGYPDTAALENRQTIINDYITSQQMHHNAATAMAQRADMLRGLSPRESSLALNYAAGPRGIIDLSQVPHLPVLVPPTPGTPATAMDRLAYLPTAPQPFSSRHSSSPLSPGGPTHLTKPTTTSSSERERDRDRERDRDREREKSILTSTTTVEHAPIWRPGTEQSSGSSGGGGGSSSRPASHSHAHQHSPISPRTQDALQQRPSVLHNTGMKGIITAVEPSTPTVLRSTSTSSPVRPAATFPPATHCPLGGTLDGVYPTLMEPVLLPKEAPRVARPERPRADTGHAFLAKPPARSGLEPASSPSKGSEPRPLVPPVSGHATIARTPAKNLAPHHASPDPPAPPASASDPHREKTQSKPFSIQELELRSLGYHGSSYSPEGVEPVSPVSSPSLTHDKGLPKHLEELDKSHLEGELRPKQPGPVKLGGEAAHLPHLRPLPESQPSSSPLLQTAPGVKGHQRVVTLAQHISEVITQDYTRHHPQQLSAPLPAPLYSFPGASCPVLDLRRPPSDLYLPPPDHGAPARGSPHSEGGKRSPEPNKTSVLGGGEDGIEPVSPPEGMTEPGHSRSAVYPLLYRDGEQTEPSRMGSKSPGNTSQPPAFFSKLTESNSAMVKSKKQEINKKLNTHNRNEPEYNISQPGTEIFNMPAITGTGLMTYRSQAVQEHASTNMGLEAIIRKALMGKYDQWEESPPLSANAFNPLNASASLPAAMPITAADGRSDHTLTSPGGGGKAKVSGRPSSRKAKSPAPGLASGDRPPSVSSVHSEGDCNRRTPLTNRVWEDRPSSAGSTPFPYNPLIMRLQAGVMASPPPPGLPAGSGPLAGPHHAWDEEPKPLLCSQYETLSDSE", "experiment": "as §1, with “of C-terminal His-tagged” for “of”, “HDAC3 (1 to 428 residues)/N-terminal GST-tagged recombinant human NCoR2 (395 to 489 residues) co-expressed” for “HDAC2 expressed”"}, "[22]": {"target": "T1, Protein deacetylase HDAC6 (Homo sapiens, UniProt Q9UBN7)", "T1 sequence (Q9UBN7 whole entry)": "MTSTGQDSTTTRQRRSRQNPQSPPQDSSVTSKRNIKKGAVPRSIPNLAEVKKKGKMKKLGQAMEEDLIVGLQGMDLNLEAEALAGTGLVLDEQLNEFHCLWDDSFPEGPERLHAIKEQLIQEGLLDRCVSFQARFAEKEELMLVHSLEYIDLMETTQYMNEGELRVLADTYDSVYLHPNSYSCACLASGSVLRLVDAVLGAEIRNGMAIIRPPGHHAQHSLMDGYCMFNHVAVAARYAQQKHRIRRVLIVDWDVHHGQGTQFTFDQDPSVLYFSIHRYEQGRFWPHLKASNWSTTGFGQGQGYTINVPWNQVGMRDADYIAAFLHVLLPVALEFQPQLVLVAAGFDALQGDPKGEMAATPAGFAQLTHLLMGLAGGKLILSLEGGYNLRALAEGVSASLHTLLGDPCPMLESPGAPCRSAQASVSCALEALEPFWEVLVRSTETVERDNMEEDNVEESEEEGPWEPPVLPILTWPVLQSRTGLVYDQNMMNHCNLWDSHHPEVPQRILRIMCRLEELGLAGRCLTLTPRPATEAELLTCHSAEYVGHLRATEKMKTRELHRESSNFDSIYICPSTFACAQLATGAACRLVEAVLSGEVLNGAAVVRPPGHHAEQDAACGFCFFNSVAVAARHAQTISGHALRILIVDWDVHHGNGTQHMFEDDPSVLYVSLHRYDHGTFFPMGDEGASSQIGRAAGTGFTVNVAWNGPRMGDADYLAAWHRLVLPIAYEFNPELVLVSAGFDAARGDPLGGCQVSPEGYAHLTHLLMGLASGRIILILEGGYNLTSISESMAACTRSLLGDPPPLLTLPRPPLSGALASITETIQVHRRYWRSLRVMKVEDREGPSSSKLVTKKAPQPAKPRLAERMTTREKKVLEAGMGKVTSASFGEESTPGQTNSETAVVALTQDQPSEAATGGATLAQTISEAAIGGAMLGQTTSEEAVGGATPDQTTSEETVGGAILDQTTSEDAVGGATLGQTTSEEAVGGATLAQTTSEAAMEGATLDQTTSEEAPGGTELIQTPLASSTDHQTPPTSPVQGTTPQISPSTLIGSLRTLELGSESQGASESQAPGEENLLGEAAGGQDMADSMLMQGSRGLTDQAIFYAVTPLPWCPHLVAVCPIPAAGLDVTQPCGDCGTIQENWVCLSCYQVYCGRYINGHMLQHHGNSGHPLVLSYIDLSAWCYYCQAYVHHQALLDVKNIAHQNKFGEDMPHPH", "experiment": "Inhibition of recombinant C-terminal FLAG-tagged full length human HDAC6 expressed in baculovirus infected Sf9 cells using Boc-Lys(Ac)-AMC as substrate preincubated for 15 mins followed by substrate addition and measured after 60 mins by fluorescence based assay"}, "HL-60 [23]": {"system": "HL-60", "experiment": "Induction of apoptosis in human HL-60 cells assessed as live cells at 1 uM measured after 24 hrs by Annexin-V/FITC and propidium iodide staining based flow cytometry (reference value: 89.29 %)", "type": "functional"}, "[24]": {"experiment": "Half life in Sprague-Dawley rat at 5 mg/kg, iv measured up to 24 hrs by LC-MS/MS analysis", "type": "ADME, organism-based", "conditions": "in vivo"}}, "note": "Activity calls are given as the source filed them. The rule behind the calls is not given here.", "data": [{"smiles": "CC1(C)C(=O)C(C#N)=C[C@]2(C)[C@H]3C(=O)C=C4[C@@H]5C[C@@](C)(C(=O)N6CCN(c7ccc(NC(=O)CCCCCCC(=O)NO)cc7)CC6)CC[C@]5(C)CC[C@@]4(C)[C@]3(C)CC[C@@H]12", "values": [{"measurement": "Activity", "setting": "HL-60 [1]", "result": 76.29, "unit": "%"}, {"measurement": "Activity", "setting": "HL-60 [2]", "result": "Active"}, {"measurement": "Activity", "setting": "HL-60 [3]", "result": 20.73, "unit": "%"}, {"measurement": "Activity", "setting": "HL-60 [4]", "result": 2.92, "unit": "%"}, {"measurement": "Activity", "setting": "HL-60 [5]", "result": 65.55, "unit": "%"}, {"measurement": "IC50", "setting": "PC-3", "result": 470, "unit": "nM"}, {"measurement": "Activity", "setting": "HL-60 [6]", "result": 40.45, "unit": "%"}, {"measurement": "IC50", "setting": "Histone deacetylase 2", "result": 4830, "unit": "nM"}, {"measurement": "Activity", "setting": "HL-60 [7]", "result": 24.55, "unit": "%"}, {"measurement": "Activity", "setting": "HL-60 [8]", "result": 3.91, "unit": "%"}, {"measurement": "IC50", "setting": "HL-60 [9]", "result": 370, "unit": "nM"}, {"measurement": "Activity", "setting": "HL-60 [10]", "result": 58.14, "unit": "%"}, {"measurement": "Activity", "setting": "HL-60 [11]", "result": 1.17, "unit": "%"}, {"measurement": "Activity", "setting": "HL-60 [12]", "result": "Active"}, {"measurement": "Activity", "setting": "HL-60 [13]", "result": "Active"}, {"measurement": "Cmax", "setting": "[14]", "result": 10800, "unit": "ng/mL"}, {"measurement": "Activity", "setting": "HL-60 [15]", "result": 23.9, "unit": "%"}, {"measurement": "Activity", "setting": "HL-60 [16]", "result": 68.63, "unit": "%"}, {"measurement": "IC50", "setting": "Histone deacetylase 1", "result": 2510, "unit": "nM"}, {"measurement": "Activity", "setting": "HL-60 [17]", "result": 27.28, "unit": "%"}, {"measurement": "Activity", "setting": "HL-60 [18]", "result": 8.05, "unit": "%"}, {"measurement": "Activity", "setting": "HL-60 [19]", "result": 2.51, "unit": "%"}, {"measurement": "AUC(0-inf)", "setting": "[20]", "result": 3780, "unit": "ng·h/mL"}, {"measurement": "IC50", "setting": "[21]", "result": 635, "unit": "nM"}, {"measurement": "IC50", "setting": "[22]", "result": 368, "unit": "nM"}, {"measurement": "Activity", "setting": "HL-60 [23]", "result": 37.66, "unit": "%"}, {"measurement": "half-life", "setting": "[24]", "result": 16.8, "unit": "h"}]}]}
